{"source": "patent US11319329B2", "about": "“Inhibitors of Bruton's tyrosine kinase and methods of their use” (JANSSEN PHARMACEUTICA NV, priority 2015, dated 2022)", "biological_target": "unphosphorylated-BTK kinase domain (UP-BTK), GST-tagged human BTK (389-659aa) (Homo sapiens (Human), UniProt Q06187)", "sequence (Q06187 389-659)": "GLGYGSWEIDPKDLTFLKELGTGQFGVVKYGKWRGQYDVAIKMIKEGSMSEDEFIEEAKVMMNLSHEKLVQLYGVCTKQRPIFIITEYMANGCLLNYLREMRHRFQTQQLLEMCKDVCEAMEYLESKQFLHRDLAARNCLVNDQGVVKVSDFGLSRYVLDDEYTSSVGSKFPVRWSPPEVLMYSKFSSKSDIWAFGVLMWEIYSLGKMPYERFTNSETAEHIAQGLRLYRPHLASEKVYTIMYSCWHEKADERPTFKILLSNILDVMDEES", "assay": "BTK kinase Lanthascreen binding assay", "conditions": "for BTK_I_binding pIC50: negative log of the IC50 in molar, 60 minutes incubation", "procedure": "BTK Kinase Lanthascreen Binding Assay:\nA BTK kinase lanthascreen binding assay monitors compound binding to unphosphorylated-BTK kinase domain (UP-BTK), by competing with a fluorescent labeled tracer. […] Data were analyzed using Xlfit™ version 5.3 from ID Business Solutions (Guildford), Microsoft Excel add-in. pIC50 refers to the negative log of the IC50 in molar", "key": {"[1]": {"conditions": "unphosphorylated BTK kinase domain, Lanthascreen"}}}
{"smiles": "C=CC(=O)N[C@H]1CCC[C@H]1NC(=O)c1sc2nccc3c2c1NC(=O)N3c1ccc(Oc2cccnc2)cc1", "note": "(relative stereo) [Example 300, N-((1R,2S)-2-Acrylamidocyclopentyl)-4-oxo-5-(*S)-(4-(pyridin-3-yloxy)phen)-4,5-dihydro-3H-1-thia-3,5,8-triazaacenaphthylene-2-carboxamide]", "values": [{"measurement": "BTK_I_binding pIC50", "setting": "50 nM Tracer 236", "value": 8.27}]}
{"smiles": "Cc1cc(Oc2ccccc2)ccc1N1C(=O)Nc2c(C(=O)N[C@@H]3CCC[C@H]3O)sc3nccc1c23", "note": "(single isomer, unassigned) [Example 4]", "values": [{"measurement": "BTK_I_binding pIC50", "setting": "[1]", "value": 7.73}]}
{"smiles": "Cc1cc(Oc2ccccc2)ccc1N1C(=O)Nc2c(C(=O)N[C@H]3CC[C@H](O)CC3)sc3nccc1c23", "note": "(single isomer, unassigned) [Example 85, N-((1R,4R)-4-Hydroxycyclohexyl)-5-(*S)-(2-methyl-4-phenoxyphenyl)-4-oxo-4,5-dihydro-3H-1-thia-3,5,8-triazaacenaphthylene-2-carboxamide]", "values": [{"measurement": "IC50", "setting": "read-out: BTK_I_binding pIC50 (converted)", "value": 0.0214, "unit": "µM"}]}
{"smiles": "C=CC(=O)NC1CCCC[C@H]1NC(=O)c1sc2nccc3c2c1NC(=O)N3c1cnc(OCC(C)C)cc1C", "note": "(single isomer, unassigned) [Example 352, N-((1R,2S)-2-Acrylamidocyclohexyl)-5-(*R)-(6-isobutoxy-4-methylpyridin-3-yl)-4-oxo-4,5-dihydro-3H-1-thia-3,5,8-triazaacenaphthylene-2-carboxamide]", "values": [{"measurement": "BTK_I_binding pIC50", "setting": "50 nM Tracer 236", "value": "<6"}]}
{"smiles": "CCC(=O)N[C@H]1CCC[C@H]1NC(=O)c1sc2nccc3c2c1NC(=O)N3c1ccc(Oc2ccccc2)nc1C", "note": "(single isomer, unassigned) [Example 353, 5-(*S)-(2-Methyl-6-phenoxypyridin-3-yl)-4-oxo-N-((1R,2R)-2-propionamidocyclopentyl)-4,5-dihydro-3H-1-thia-3,5,8-triazaacenaphthylene-2-carboxamide]", "values": [{"measurement": "BTK_I_binding pIC50", "setting": "50 nM Tracer 236", "value": "<6"}]}
{"smiles": "C=CC(=O)N[C@H]1CCCC[C@H]1NC(=O)c1sc2nccc3c2c1NC(=O)N3c1cnc(CC(C)C)cc1C", "note": "(single isomer, unassigned) [Example 357, N-((1R,2S)-2-Acrylamidocyclohexyl)-5-(*S)-(6-isobutyl-4-methylpyridin-3-yl)-4-oxo-4,5-dihydro-3H-1-thia-3,5,8-triazaacenaphthylene-2-carboxamide]", "values": [{"measurement": "BTK_I_binding pIC50", "setting": "50 nM Tracer 236", "value": 7.98}]}
{"smiles": "Cc1cc(Oc2ccccc2)ccc1N1C(=O)Nc2c(C(=O)N[C@H]3CCCC[C@@H]3NC=O)sc3nccc1c23", "note": "[Example 54, N-((1S,2S)-2-Formamidocyclohexyl)-5-(2-methyl-4-phenoxyphenyl)-4-oxo-4,5-dihydro-3H-1-thia-3,5,8-triazaacenaphthylene-2-carboxamide]", "values": [{"measurement": "BTK_I_binding pIC50", "setting": "[1]", "value": 5.90}]}
